The subject of test [1] is GH release from rat pituitary cells. Put plainly: Inhibition of GH release from rat pituitary cells in vitro (GH ELISA). Particulars: analogs 20 nM, then with 1 nM GHRH(1-29)NH2 for 30 minutes; Control = 1.00. It is filed as cell-based. As to the method:
In vitro assessment of the antagonistic activity of GHRH analogs. Rats were decapitated and pituitaries were collected in pre-warmed HBSS (Hanks' Balanced Salt Solution). Tissue was then cut into small pieces and digested in HBSS medium containing 3% BSA, 50 μg/ml gentamycin and 0.5% collagenase for 50 minutes at 37° C. Cells were further dispersed by pipetting and passed through a 100 μm cell strainer with the addition of DMEM containing 50 μg/ml gentamycin. 10% horse serum and 2.5% FBS (growth medium). Cells were harvested at 475×g for 2 minutes, resuspended in fresh growth medium and seeded onto poly-D-lysine-coated 24-well plates (7 pituitaries/plate). Cells were left to recover for 4 days. Growth medium was then replaced with serum-free DMEM for 4 hours and GHRH analogs (at concentration of 20 nM) were added in DMEM containing 0.1% BSA for 30 minutes. Cells were replenished with medium containing the same concentration of the analogs and 1 nM GHRH(1-29)NH2 for 30 minutes. Medium from this step was collected, centrifuged at 800 g for 3 minutes and GH concentration was determined by ELISA (ALPCO Diagnostics, Mill Valley, Calif.) according to the manufacturer's instruction.
For orientation: In an ELISA, binding on a coated surface is turned into a signal by an enzyme label.

Test [2] concerns CFPAC-1 pancreatic cancer cells. Put plainly: In vitro cell viability, CFPAC-1. It is filed as cell-based, human. Particulars: Table 3B; 5 μM for 72 H; MIA-602 = 1. In outline:
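Viability by CellTiter 96 aqueous one solution (MTS) after 72 h exposure to antagonist at 5 μM (some at 2 μM), following 24 h starvation in 0.5% FBS. Results given as percentage inhibition relative to MIA602.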

Test [3] deals with lung cancer HCC827 xenograft. Put plainly: Xenograft tumor growth in nude mice, HCC827. It is filed as in vivo. Particulars: Table 4B, Lung Ca HCC827, 7 weeks, 5 μg/day s.c. As to the method: The peptides' activity was compared with GHRH antagonist MIA-602. All statistical analyzses were performed from comparing GHRA antagonists to non-treated tumor (control).
Peptides and chemicals. GHRH antagonists MIA-602 and AVR-GHRH antagonists (see Table 2 above) were synthesized by solid phase methods and purified by HPLC. The peptides were dissolved in DMSO and further diluted in 10% 1,2-propanediol. The final concentration of peptides was 50 µg/ml in 10% 1,2-propanediol containing 0.1% of DMSO.
Cell culture. Human cancer cell lines including pancreatic (PANC-1 and CFPAC-1), lung (HCC827 and H460), stomach (NCI-N87), prostate (PC3), brest (MX-1 and HCC-1806), colorectal (HT-29), and ovarian (SK-OV-3 and OVCAR-3) were obtained from the American Type Culture Collection (ATCC) and cultured at 37° C. in a humidified 95% air/5% CO2 atmosphere in the medium recommended by ATCC.
Xenograft models of human cancers in nude mice. Female athymic (NCr nu/nu) nude mice, 5- to 6-weeks-old, obtained from the Envigo labs (Tampa, Fla.), were housed in laminar airflow cabinets under pathogen-free conditions with a 12-h light/12-h dark schedule, and were fed autoclaved standard chow and water. To generate mice with xenografted tumors, tumor xenografts were initiated by subcutaneous (s.c.) injection of 107 human cancer cells into female nude mice. After about 4 weeks the resulting tumors were dissected and collected after removing necrosis tissues. The tumors were then cut into particles with size of 3 mm3 and transplanted s.c. by trocar needle into experimental animals. When tumors grew to the size of 50-60 mm3 (by volume), mice were randomized into groups and treated daily for 4-8 weeks by subcutaneous administration of 5 μg of GHRH antagonists MIA-602 or AVR-compounds (2-10 μg as indicated), or vehicle solutions (0.1% DMSO in 10% 1,2-propanediol) respectively. Tumor sizes were measured weekly.
Statistical analysis. One-way ANOVA followed by Bonferroni comparison were performed. Data are expressed as Mean±SEM. To determine statistical significance between animal groups, two-tailed Student's t-test was conducted. Differences were considered significant when p<0.05.
Results. […] FIG. 1A-N represents in vivo inhibition of tumor growth during the treatment with GHRH antagonist MIA-602 and selected AVR antagonists in nude mice xenografted with various human tumors including pancreatic cancer PANC-1 (FIG. 1A) and CFPAC-1 (FIG. 1I); lung cancer HCC827 (FIGS. 1B, C) and H460 (FIG. 1H); stomach cancer N87 (FIGS. 1D-F); colon cancer HT-29 (FIG. 1G); breast cancer MX-1 and HCC-1806 (FIGS. 1J, K); ovarian cancer SK-OV-3 and OVACAR-3 (FIGS. 1 L, M) and prostate cancer PC3 (FIG. 1N). See also Table 5.

SMILES strings stand for the structures. Non-standard residues stand in square brackets, D forms with d. Residues, ends and D or L forms follow the SMILES beside them. *: point of attachment. Phenylacetyl(2,3,4,5,6-F5) = O=C(Cc1c(F)c(F)c(F)c(F)c1F)*; Phe(F5) = N[C@@H](Cc1c(F)c(F)c(F)c(F)c1F)C(=O)O; Phe(4-Cl) = N[C@@H](Cc1ccc(Cl)cc1)C(=O)O; hArg = N=C(N)NCCCC[C@H](N)C(=O)O; 12Ado = NCCCCCCCCCCCC(=O)O; Nle = CCCC[C@H](N)C(=O)O; Orn = NCCC[C@H](N)C(=O)O; Abu = CC[C@H](N)C(=O)O

For the compound `CCCC[C@H](NC(=O)[C@@H](NC(=O)[C@H](CC(=O)O)NC(=O)[C@H](CCC(N)=O)NC(=O)[C@H](CC(C)C)NC(=O)[C@H](CC(C)C)NC(=O)[C@H](CCCCN)NC(=O)[C@H](CCCNC(=N)N)NC(=O)[C@H](C)NC(=O)[C@H](CO)NC(=O)[C@H](CC(C)C)NC(=O)[C@H](CCC(N)=O)NC(=O)[C@H](CC)NC(=O)[C@H](CC(C)C)NC(=O)[C@@H](NC(=O)[C@H](CCCCN)NC(=O)[C@H](CCCNC(=N)N)NC(=O)[C@H](Cc1c(F)c(F)c(F)c(F)c1F)NC(=O)[C@H](CCCCNC(=N)N)NC(=O)[C@H](C)NC(=O)[C@@H](NC(=O)[C@H](Cc1ccc(Cl)cc1)NC(=O)[C@@H](NC(=O)[C@H](C)NC(=O)[C@H](CC(=O)O)NC(=O)[C@@H](CCCNC(=N)N)NC(=O)[C@H](Cc1ccc(O)cc1)NC(=O)CCCCCCCCCCCNC(=O)Cc1c(F)c(F)c(F)c(F)c1F)[C@@H](C)CC)[C@@H](C)O)C(C)C)[C@@H](C)CC)C(=O)N[C@H](CCCNC(=N)N)C(=O)N[C@@H](CCCCNC(=N)N)C(=O)NCCCCCCCCCCCC(=O)NC` [AVR-354] ({Phenylacetyl(2,3,4,5,6-F5)-12Ado}-Y[dR]DAI[Phe(4-Cl)]TA[hArg][Phe(F5)]RKVL[Abu]QLSARKLLQDI[Nle][dR][hArg][12Ado]-NHMe), the “Relative GH release” value in test [1] was determined as 0.90 ± 0.02. For the same compound, in test [2], the “In vitro relative inhibitory potency in comparison to MIA-602, CFPAC-1” value is 1.67.

As a reminder, the % Inhibition is the drop in the measured response relative to a control, in per cent. A lower % Inhibition goes with a weak effect. For the compound `CCCC[C@H](NC(=O)[C@@H](NC(=O)[C@H](CC(=O)O)NC(=O)[C@H](CCC(N)=O)NC(=O)[C@H](CC(C)C)NC(=O)[C@H](CC(C)C)NC(=O)[C@H](CCCN)NC(=O)[C@H](Cc1c[nH]cn1)NC(=O)[C@H](C)NC(=O)[C@H](CO)NC(=O)[C@H](CC(C)C)NC(=O)[C@H](CCC(N)=O)NC(=O)[C@H](CC)NC(=O)[C@H](CC(C)C)NC(=O)[C@@H](NC(=O)[C@H](CCCN)NC(=O)[C@H](Cc1c[nH]cn1)NC(=O)[C@H](Cc1ccc(OC)cc1)NC(=O)[C@H](CCCCNC(=N)N)NC(=O)[C@H](C)NC(=O)[C@@H](NC(=O)[C@H](Cc1c(F)c(F)c(F)c(F)c1F)NC(=O)[C@@H](NC(=O)[C@H](C)NC(=O)[C@H](CC(=O)O)NC(=O)[C@@H](CCCNC(=N)N)NC(=O)[C@H](Cc1ccc(O)cc1)NC(=O)CCCCCCCCCCCNC(=O)Cc1c(F)c(F)c(F)c(F)c1F)[C@@H](C)CC)[C@@H](C)O)C(C)C)[C@@H](C)CC)C(=O)N[C@H](CCCNC(=N)N)C(=O)N[C@@H](CCCCNC(=N)N)C(=O)NCCCCCCCCCCCC(N)=O` [AVR-553, 5FPhAC-Ada-Tyr-DArg-Asp-Ala-Ile-5FPhe-Thr-Ala-Har-Tyr(Me)-His-Orn-Val-Leu-Abu-Gln-Leu-Ser-Ala-His-Orn-Leu-Leu-Gln-Asp-Ile-Nle-DArg-Har-Ada-NH2] ({Phenylacetyl(2,3,4,5,6-F5)-12Ado}-Y[dR]DAI[Phe(F5)]TA[hArg]Y(Me)H[Orn]VL[Abu]QLSAH[Orn]LLQDI[Nle][dR][hArg][12Ado]-NH2), in test [1], the “Relative GH release” value is 0.82 ± 0.04. Further, the “Tumor Growth %” value in test [3] was 1132.0%. Besides, the “% Inhibition” value in test [3] (vs control) is reported as 13.7%.

For the origin of these results see patent US20210395327A1, “Growth Hormone-Releasing Hormone Antagonists and Uses Thereof” (United States Government As Represented By The Department …, priority 2019, published 2021).
